Assay [1] deals with NCSMCs derived from hESC (H9). Particulars: NCSMCs at 1% oxygen, drug 48 hr (minocycline 5 μM, losartan 5 μM), then labeled Aβ for 1 hr.
Description: NCSMCs and BVSMCs were routinely cultured at 21% oxygen and 1% oxygen to simulate normoxic and chronic hypoxic conditions, respectively. Twenty one percent O2 SMCs were seeded at 30,000 cells/well onto 96-well plate as positive controls. One percent O2 SMCs were seeded at the same density as negative controls and experimental samples for drug treatment on the same plate. The 96-well plate was incubated at 37° C. overnight at 21% O2. After cell attachment, 2 mg/ml of fluorescently labeled amyloid peptide (Aβ42-Hilyte Fluor 555 or Aβ40-Hilyte Fluor 488, Anaspec) was added to SMCs for a 1 hr uptake at 37° C. After Aβ uptake, cells were dissociated into single-cell suspension for high-throughput flow cytometry by LSRFortessa plate analyzer. Respective Z factors for NCSMC and BVSMC Aβ uptake assays were calculated based on their mean fluorescence brightness (normalized to no-uptake controls) and SDs of positive (21% O2) and negative (1% O2) controls. […] Mean fluorescence brightness signals (normalized to no-uptake control) indicated the degree of amyloid uptake.
NCSMC were treated with the following reference compounds for 48 hours at 37° C. prior to Aβ uptake. […]
The NCSMC and BVSMC cultures were scaled down to 96-well format. […] Cells were incubated with labeled Aβ40 and Aβ42 (2 mg/ml) for an hour and subsequently evaluated by high-throughput flow cytometry.
Another assay has as its system SMC subtypes. Description: SMC contraction study. Particulars: angiotensin II 0.5 μM, 10 min, all SMC subtypes, n=30. It is filed as cell-based, human. On the procedure:
SMCs were preloaded with the calcium-sensitive fluorophore, Fluo-4 AM (2.5 μM; Molecular Probes) at 37° C. for an hour. Contraction was induced by treating the cells with angiotensin II (0.5 μM, Sigma). Contraction pictures and intracellular calcium flux videos of SMCs were acquired by a time-lapse microscope live cell imaging microscope (Zeiss Axiovert 200M) during 10 minutes of angiotensin II treatment. Change of cell surface area was assessed by ImageJ software.

With `CCCCc1nc(Cl)c(CO)n1Cc1ccc(-c2ccccc2-c2nn[nH]n2)cc1` [losartan], the “Effect on Aβ uptake (Aβ40 and Aβ42) over the vehicle control” value in assay [1] is “may not have any apparent effect”.

Turning to “angiotensin II (DRVYIHPF; Angiotensin-2; UniProt P01019 25-32, looked up) [vasoconstrictor, an inducer of contraction (0.5 μM, Sigma)]”, the “Reduction of cell surface area in contracting SMCs” value in the assay on SMC subtypes is 18%-21%.

Source of the values: patent publication US20150218523A1, “MANUFACTURE OF VASCULAR SMOOTH MUSCLE CELLS AND THE USE” (Agency for Science, Technology and Research, priority 2014, published 2015).
